Laboratory results published in ChEMBL document CHEMBL2074424, “Breast cancer resistance protein directly confers SN-38 resistance of lung cancer cells” (Biochem Biophys Res Commun, 2001).

Biological target: T1, Broad substrate specificity ATP-binding cassette transporter ABCG2 (Homo sapiens, UniProt Q9UNQ0)
T1 sequence (Q9UNQ0 whole entry): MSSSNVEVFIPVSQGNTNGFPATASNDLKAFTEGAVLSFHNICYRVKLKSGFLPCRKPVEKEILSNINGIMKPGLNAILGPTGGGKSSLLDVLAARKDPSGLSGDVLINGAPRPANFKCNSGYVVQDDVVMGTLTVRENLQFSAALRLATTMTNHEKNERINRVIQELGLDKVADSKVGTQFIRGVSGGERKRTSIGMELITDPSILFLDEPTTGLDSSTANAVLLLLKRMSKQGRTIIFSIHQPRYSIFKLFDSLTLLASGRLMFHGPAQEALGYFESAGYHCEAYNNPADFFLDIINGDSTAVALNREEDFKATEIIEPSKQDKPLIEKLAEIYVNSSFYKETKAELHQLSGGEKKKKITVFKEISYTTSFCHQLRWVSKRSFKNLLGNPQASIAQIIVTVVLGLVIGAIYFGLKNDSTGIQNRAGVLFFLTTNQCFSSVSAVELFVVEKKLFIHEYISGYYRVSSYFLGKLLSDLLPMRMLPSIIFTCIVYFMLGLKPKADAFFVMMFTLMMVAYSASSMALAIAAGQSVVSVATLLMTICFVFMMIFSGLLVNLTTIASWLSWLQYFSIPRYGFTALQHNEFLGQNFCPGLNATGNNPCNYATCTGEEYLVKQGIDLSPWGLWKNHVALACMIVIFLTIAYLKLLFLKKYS
Test: TP_TRANSPORTER: inhibition of accumulation by antisense of BCRP in PC-6/SN2-5,PC-6/SN2-5H cells
Type: functional, cell-based

CCc1c2c(nc3ccc(O)cc13)-c1cc3c(c(=O)n1C2)COC(=O)[C@]3(O)CC [7-ETHYL-10-HYDROXYCAMPTOTHECIN]
Activity: substrate [+]
